# Laboratory results as given in patent publication US6441039B1, “Gastro-intestinal adverse effect-free composition comprising an L-carnitine replacement” (priority 1998, dated 2002).
# Values joined by “and” are separate entries in the source; they are usually repeats but may differ in a detail not shown here. Equal values may be shown once. Where a name gives a salt, the structure may show the parent alone. Marks after values point to notes of the source that are not given here.
# Assays:
# [1] = test system: gastrointestinal motility; test: charcoal propulsion test, intestinal motility after single oral dose
# Protocol: A study on the effect on intestinal motility of L-carnitine acid fumarate vs. L-carnitine L-tartrate administered by the oral route to the rat at a single dose, using the charcoal propulsion test, is hereinbelow reported.
# 35-day old, Hsd Sprague Dawley (SD) male rats (Harlan), weighing 125-150 g were used in the study. The rats were supplied by Harlan Nossan S.r.l., 8, Via E. Fermi, 20050 Correzzana (MI)—Italy.
# Eight male rats/group were treated orally with L-Carnitine acid Fumarate, at the doses of 430-855 and 1710 mg/10 ml/kg, and with L-Carnitine L-Tartrate at the doses of 365-730 and 1455 mg/10 ml/kg.
# The doses of the two compounds were chosen as equimolar to 250-500 and 1000 mg/kg of L-Carnitine Inner Salt.
# Two additional groups, each consisting of eight males, were set up and orally treated respectively with the vehicle (Control group—0.5% Carboxymethylcellulose (MC) in deionized water: 10 ml/kg) or with Atropine (30 mg/10 ml/kg) as reference standard.
# The animals were subdivided at random (in number of 4/cage) into the different dosage groups according to the following scheme:
# Forty-five minutes after the administration of all the above reported substances, each rat received orally 1.5 ml of a 10% charcoal suspension.
# Exactly twenty minutes after dosing with charcoal suspension the rats were sacrificed; then the distance the charcoal meal had travelled throughout the intestine (from the pyloric sphincter towards the caecum) was measured and expressed as a percentage of the total gut length.
# [2] = oral intake, dose-related; cited from earlier work
# [3] = individual rats, oral 30 mg/10 ml/kg
Compound,"Distance travelled as % of total intestine length (individual rat) [1, 3]","Distance travelled by charcoal (individual rat) [1, 3]","% change from vehicle ([1]; rat, oral 30 mg/10 ml/kg) [%]","change in gastrointestinal motility vs control group ([1]; rat, oral 30 mg/kg)","Distance travelled as % of total intestine length (mean) ([1]; rat, oral single dose 30 mg/10 ml/kg, n=8, p<0.001 vs control)",gastrointestinal adverse effect in users [2]
CN1[C@@H]2CC[C@H]1C[C@@H](OC(=O)C(CO)c1ccccc1)C2 (stereo partly drawn) [Atropine],48.74% and 39.68% and 37.50% and 46.56% and 44.07% and 44.96% and 42.06% and 41.60%,58 cm (2×) and 50 cm and 45 cm and 61 cm and 52 cm (2×) and 53 cm,−30.87,statistically highly significant (p<0.001) decrease in gastrointestinal motility,43.15 ▴ %,–
"C[N+](C)(C)C[C@H](O)CC(=O)[O-] [L-carnitine, L-carnitine inner salt]",–,–,–,–,–,episodes of diarrhoea have been frequently reported
